According to patent US7825260B2, “Aminopropanol derivatives as sphingosine-1-phosphate receptor modulators” (Novartis AG, priority 2003, dated 2010):
pEC50: −log10 of the molar value.

Columns and labels:
[1] = test system: peripheral blood lymphocytes; assay: In vivo: Blood Lymphocyte Depletion; settings: rats, p.o.
Protocol: B. In vivo: Blood Lymphocyte Depletion
A compound of formula I or the vehicle is administered orally by gavage to rats. Tail blood for hematological monitoring is obtained on day −1 to give the baseline individual values, and at 2, 6, 24, 48 and 72 hours after application. In this assay, the compounds of formula I deplete peripheral blood lymphocytes when administered at a dose of 0.03 to 3 mg/kg. For example, following results are obtained: depletion of peripheral blood lymphocytes by more than 50%.

[2] = target: T1, human S1P receptor EDG-8 (S1P5) (Homo sapiens, UniProt Q9H228); assay: S1P receptor profiling, GTP[γ-35S] binding SPA, S1P5; format: biochemical; settings: for S1P5 mode of action: Agon = agonist; for pEC50: GTP[γ-35S] binding to membranes of transfected CHO or RH7777 cells
T1 construct: expressed in transfected cells
T1 sequence (Q9H228 whole entry): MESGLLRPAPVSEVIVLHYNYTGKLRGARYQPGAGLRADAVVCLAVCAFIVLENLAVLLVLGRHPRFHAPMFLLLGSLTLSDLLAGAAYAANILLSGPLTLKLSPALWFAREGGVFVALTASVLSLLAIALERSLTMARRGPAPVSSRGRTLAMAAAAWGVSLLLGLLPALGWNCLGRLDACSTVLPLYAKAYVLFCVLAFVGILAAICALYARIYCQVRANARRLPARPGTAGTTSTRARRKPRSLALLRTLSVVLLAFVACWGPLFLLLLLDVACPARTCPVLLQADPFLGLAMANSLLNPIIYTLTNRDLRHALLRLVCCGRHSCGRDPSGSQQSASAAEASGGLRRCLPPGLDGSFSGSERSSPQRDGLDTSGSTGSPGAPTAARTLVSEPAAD
Protocol: (§1) Sphingosine-1-phosphate (S1P) Receptor Profiling
(§2) Agonist activities of compounds are tested on the human S1P receptors EDG-1 (S1P1), EDG-3 (S1P3), EDG-5 (S1P2), EDG-6 (S1P4) and EDG-8 (S1P5). […] The assay technology used is SPA (scintillation proximity based assay). Briefly, DMSO dissolved compounds are serially diluted and added to SPA-bead (Amersham-Pharmacia) immobilised S1P receptor expressing membrane protein (10-20 μg/well) in the presence of 50 mM Hepes, 100 mM NaCl, 10 mM MgCl2, 10 μM GDP, 0.1% fat free BSA and 0.2 nM GTP [γ-^35S] (1200 Ci/mmol). After incubation in 96 well microtiterplates at RT for 120 min, unbound GTP [γ-^35S] is separated by a centrifugation step. Luminescence of SPA beads triggered by membrane bound GTP [γ-^35S] is quantified with a TOPcount plate reader (Packard). EC50s are calculated using standard curve fitting software. In this assay, the compounds of formula I have a binding affinity to S1P1 receptor <50 nM.

[3] = target: T2, human S1P receptor EDG-6 (S1P4) (Homo sapiens, UniProt O95977); assay: S1P receptor profiling, GTP[γ-35S] binding SPA, S1P4; format: biochemical; settings: for S1P4 mode of action: Agon = agonist; for pEC50: GTP[γ-35S] binding to membranes of transfected CHO or RH7777 cells
T2 construct: expressed in transfected cells
T2 sequence (O95977 1-384): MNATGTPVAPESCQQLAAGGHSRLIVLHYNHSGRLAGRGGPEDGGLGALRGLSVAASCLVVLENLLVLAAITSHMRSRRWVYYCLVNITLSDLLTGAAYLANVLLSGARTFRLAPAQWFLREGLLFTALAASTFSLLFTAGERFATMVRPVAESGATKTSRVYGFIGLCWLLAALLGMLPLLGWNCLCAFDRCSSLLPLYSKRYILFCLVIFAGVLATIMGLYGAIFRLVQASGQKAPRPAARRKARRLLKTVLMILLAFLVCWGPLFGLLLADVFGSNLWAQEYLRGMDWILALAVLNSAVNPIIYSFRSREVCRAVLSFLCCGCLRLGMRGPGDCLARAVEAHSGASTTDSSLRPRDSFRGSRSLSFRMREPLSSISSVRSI
Protocol: as §1, §2

[4] = target: T3, human S1P receptor EDG-1 (S1P1) (Homo sapiens, UniProt P21453); assay: S1P receptor profiling, GTP[γ-35S] binding SPA, S1P1; format: biochemical; settings: for S1P1 mode of action: Agon = agonist; for pEC50: GTP[γ-35S] binding to membranes of transfected CHO or RH7777 cells
T3 construct: expressed in transfected cells
T3 sequence (P21453 whole entry): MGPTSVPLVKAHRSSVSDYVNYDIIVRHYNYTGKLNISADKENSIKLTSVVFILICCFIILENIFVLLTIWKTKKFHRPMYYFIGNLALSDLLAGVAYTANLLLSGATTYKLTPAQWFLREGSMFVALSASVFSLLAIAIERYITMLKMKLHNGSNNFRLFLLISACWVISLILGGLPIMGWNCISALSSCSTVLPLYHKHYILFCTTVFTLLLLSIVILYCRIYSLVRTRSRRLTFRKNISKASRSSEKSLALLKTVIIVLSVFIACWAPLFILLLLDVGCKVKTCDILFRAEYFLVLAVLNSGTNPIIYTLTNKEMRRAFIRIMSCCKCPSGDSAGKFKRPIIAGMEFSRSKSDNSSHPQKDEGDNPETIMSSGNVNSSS
Protocol: as §1, §2

[5] = target: T4, human S1P receptor EDG-3 (S1P3) (Homo sapiens, UniProt Q99500); assay: S1P receptor profiling, GTP[γ-35S] binding SPA, S1P3; format: biochemical; settings: for S1P3 mode of action: Agon = agonist; for pEC50: GTP[γ-35S] binding to membranes of transfected CHO or RH7777 cells
T4 construct: expressed in transfected cells
T4 sequence (Q99500 whole entry): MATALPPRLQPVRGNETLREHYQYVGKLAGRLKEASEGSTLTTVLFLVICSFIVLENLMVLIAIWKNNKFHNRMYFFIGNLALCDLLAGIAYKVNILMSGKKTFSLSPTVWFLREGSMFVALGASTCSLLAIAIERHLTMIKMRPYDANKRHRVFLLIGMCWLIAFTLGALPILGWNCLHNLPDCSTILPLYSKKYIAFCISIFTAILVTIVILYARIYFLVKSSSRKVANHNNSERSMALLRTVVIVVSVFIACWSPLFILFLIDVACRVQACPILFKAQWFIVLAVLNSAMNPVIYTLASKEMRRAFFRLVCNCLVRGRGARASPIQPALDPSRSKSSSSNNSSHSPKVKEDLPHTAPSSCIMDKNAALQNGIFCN
Protocol: as §1, §2

Structure (SMILES) | S1P5 mode of action [2] | pEC50 [2] | S1P4 mode of action [3] | pEC50 [3] | melting point [°C] | S1P1 mode of action [4] | pEC50 [4] | S1P3 mode of action [5] | pEC50 [5] | dose giving depletion of peripheral blood lymphocytes by more than 50% ([1]; after 6 h) | dose giving depletion of peripheral blood lymphocytes by more than 50% ([1]; after 24 h) | dose giving depletion of peripheral blood lymphocytes by more than 50% ([1]; after 48 h) [mg/kg after 48 h]
CCCCCOc1ccc2cc(CC[C@@](C)(N)CO)ccc2c1 [Example 1, (R)-2-amino-2-methyl-4-(6-pentyloxynaphthalen-2-yl)butan-1-ol] | – | – | – | – | – | – | – | – | – | 0.02 mg/kg p.o. after 6 h, | 0.3 mg/kg p.o. after 24 h, | >1
CCCCCOc1ccc2cc(CC[C@@](C)(N)COP(=O)(O)O)ccc2c1 [Example 12, Phosphoric acid mono-[(R)-2-amino-2-methyl-4-(6-pentyloxynaphthalen-2-yl)but-1-yl]ester] | Agon | 10.00 | Agon | 9.40 | 266 to 267 | Agon | 9.52 | Agon | 8.08 | – | – | –
C[C@](N)(CO)CCc1ccc2oc(-c3ccc4c(c3)OCO4)nc2c1 [Example 25, (R)-2-Amino-4-(2-benzo[1,3]dioxol-5-yl-benzoxazol-5-yl)-2-methyl-butan-1-ol] | – | – | – | – | – | – | – | – | – | 0.06 mg/kg p.o. after 6 h | – | 0.3
CCOc1cccc(-c2nc3cc(CC[C@@](C)(N)CO)ccc3o2)c1 [Example 26, (R)-2-Amino-4-[2-(3-ethoxy-phenyl)-benzoxazol-5-yl]-2-methyl-butan-1-ol] | – | – | – | – | – | – | – | – | – | 0.03 mg/kg p.o. after 6 h | – | 0.2
C[C@](N)(CO)CCc1ccc2oc(-c3ccccc3)cc2c1 [Example 37, (R)-2-Amino-2-methyl-4-(2-phenyl-benzofuran-5-yl)-butan-1-ol] | – | – | – | – | – | – | – | – | – | 0.40 mg/kg p.o. after 6 h | – | –

More lines, main results first:

S1P5 mode of action [2] | pEC50 [2] | S1P4 mode of action [3] | pEC50 [3] | melting point [°C] | S1P1 mode of action [4] | pEC50 [4] | S1P3 mode of action [5] | pEC50 [5] | Structure (SMILES) | dose giving depletion of peripheral blood lymphocytes by more than 50% ([1]; after 6 h) | dose giving depletion of peripheral blood lymphocytes by more than 50% ([1]; after 24 h) | dose giving depletion of peripheral blood lymphocytes by more than 50% ([1]; after 48 h) [mg/kg after 48 h]
Agon | 9.40 | Agon | 8.92 | – | Agon | 10.22 | Agon | 8.24 | C[C@@](N)(CCc1ccc2cc(OCCCC(F)(F)C(F)(F)F)ccc2c1)COP(=O)(O)O [Example 13] | – | – | –
Agon | 9.10 | Agon | 9.00 | – | Agon | 8.55 | inverse | 7.33 | CCCOc1ccc2cc(CC[C@@](C)(N)COP(=O)(O)O)ccc2c1 [Example 14] | – | – | –
Agon | 8.30 | Agon | 8.05 | – | Agon | 7.77 | Agon | < 6.00 | CCCCCc1nc2cc(CC[C@@](C)(N)COP(=O)(O)O)ccc2o1 [Example 42, Phosphoric acid mono-[(R)-2-amino-2-methyl-4-(2-pentyl-benzoxazol-5-yl)-butyl]ester] | – | – | –
Agon | 9.40 | Agon | 9.15 | – | Agon | 8.80 | Agon | 5.93 | C[C@@](N)(CCc1ccc2oc(-c3ccccc3)cc2c1)COP(=O)(O)O [Example 49, Phosphoric acid mono-[(R)-2-amino-2-methyl-4-(2-phenyl-benzofuran-5-yl)-butyl]ester] | – | – | –
